# ChEMBL document CHEMBL1765061, “Synthesis of rabdokunmin C analogues and their inhibitory effect on NF-κB activation” (Bioorg Med Chem, 2011)
# Calls of active or inactive are those of the source. The rule behind the calls is not given here.
# Test system: RAW264
# Experiment: Inhibition of LPS-induced NO production in mouse RAW264 cells after 24 hrs
# Type: functional, cell-based
# Details: not given
row,SMILES,inhibition
1,C[C@H]1C(=O)[C@@]23[C@H](O)C[C@@H]4[C@@](C)(CO)CCC[C@@]4(C)[C@@H]2C[C@H](O)[C@@H]1[C@H]3O,Active
2,C=C1C(=O)[C@@]23[C@@H]4OC(C)(C)O[C@@H]2C[C@@H]2[C@@](C)(CO)CCC[C@@]2(C)[C@@H]3C=C[C@@H]14,Active
3,C=C1C(=O)[C@@]23[C@@H]4OC(C)(C)O[C@@H]2C[C@@H]2[C@@](C)(CO)CCC[C@@]2(C)[C@@H]3C[C@H](OC(C)=O)[C@@H]14,Active
4,C=C1C(=O)[C@@]23[C@@H]4OC(C)(C)O[C@@H]2C[C@@H]2[C@@](C)(COC(C)=O)CCC[C@@]2(C)[C@@H]3C[C@H](OC(C)=O)[C@@H]14,Active
5,C=C1C(=O)[C@@]23[C@H](O)C[C@@H]4[C@@](C)(CO)CCC[C@@]4(C)[C@@H]2C[C@H](OC(C)=O)[C@@H]1[C@H]3O,Active
6,CC1=C(O)C(=O)C=C2C1=CC=C1[C@@]2(C)CC[C@@]2(C)[C@@H]3C[C@](C)(C(=O)O)CC[C@]3(C)CC[C@]12C [CELASTROL],Active
7,C=C1C(=O)[C@@]23[C@H](O)C[C@@H]4[C@@](C)(COC(C)=O)CCC[C@@]4(C)[C@@H]2C[C@H](OC(C)=O)[C@@H]1[C@H]3O,Active
8,C=C1C(=O)[C@@]23[C@H](O)C[C@@H]4[C@@](C)(COC(C)=O)CCC[C@@]4(C)[C@@H]2C=C[C@@H]1[C@H]3O,Active
9,C=C1C(=O)[C@@]23[C@@H]4OC(C)(C)O[C@@H]2C[C@@H]2[C@@](C)(COC(=O)C(F)(F)F)CCC[C@@]2(C)[C@@H]3C[C@H](OC(=O)C(F)(F)F)[C@@H]14,Active
10,C=C1C(=O)[C@@]23[C@H](O)C[C@@H]4[C@@](C)(COC(C)=O)CCC[C@@]4(C)[C@@H]2C[C@H](O)[C@@H]1[C@H]3O [ALBOPILOSIN A],Active
11,C=C1C(=O)[C@@]23[C@H](O)C[C@@H]4[C@@](C)(CO)CCC[C@@]4(C)[C@@H]2C=C[C@@H]1[C@H]3O,Active
12,C=C1C(=O)[C@@]23[C@@H]4OC(C)(C)O[C@@H]2C[C@@H]2[C@@](C)(CO)CCC[C@@]2(C)[C@@H]3C[C@H](O)[C@@H]14,Active
13,C=C1C(=O)[C@@]23[C@H](O)C[C@H]4[C@@](C)(CCC[C@]4(C)C=O)[C@@H]2C[C@H](OC(C)=O)[C@@H]1[C@H]3O,Active
14,C=C1C(=O)[C@@]23[C@H](O)C[C@H]4[C@@](C)(CCC[C@]4(C)C(=O)O)[C@@H]2C[C@H](OC(C)=O)[C@@H]1[C@H]3O,Active
15,C=C1C(=O)[C@@]23[C@H](O)C[C@@H]4[C@@](C)(CO)CCC[C@@]4(C)[C@@H]2C[C@H](O)[C@@H]1[C@H]3O [RABDOKUNMIN C],Active
16,C=C1C(=O)[C@@]23[C@@H]4OC(C)(C)O[C@@H]2C[C@@H]2[C@@](C)(COC(C)=O)CCC[C@@]2(C)[C@@H]3C[C@H](O)[C@@H]14,Active

# Test system: not listed separately
# Experiment: Cytotoxicity against mouse RAW264 cells after 2 hrs by WST reagent-based microplate reader analysis
# Type: cell-based
# Details: raw264, 2 h
row,SMILES,Activity
1,C[C@H]1C(=O)[C@@]23[C@H](O)C[C@@H]4[C@@](C)(CO)CCC[C@@]4(C)[C@@H]2C[C@H](O)[C@@H]1[C@H]3O,Toxic
2,C=C1C(=O)[C@@]23[C@@H]4OC(C)(C)O[C@@H]2C[C@@H]2[C@@](C)(CO)CCC[C@@]2(C)[C@@H]3C=C[C@@H]14,Toxic
3,C=C1C(=O)[C@@]23[C@@H]4OC(C)(C)O[C@@H]2C[C@@H]2[C@@](C)(CO)CCC[C@@]2(C)[C@@H]3C[C@H](OC(C)=O)[C@@H]14,Toxic
4,C=C1C(=O)[C@@]23[C@@H]4OC(C)(C)O[C@@H]2C[C@@H]2[C@@](C)(COC(C)=O)CCC[C@@]2(C)[C@@H]3C[C@H](OC(C)=O)[C@@H]14,Toxic
5,C=C1C(=O)[C@@]23[C@H](O)C[C@@H]4[C@@](C)(CO)CCC[C@@]4(C)[C@@H]2C[C@H](OC(C)=O)[C@@H]1[C@H]3O,Toxic
6,CC1=C(O)C(=O)C=C2C1=CC=C1[C@@]2(C)CC[C@@]2(C)[C@@H]3C[C@](C)(C(=O)O)CC[C@]3(C)CC[C@]12C [CELASTROL],Toxic
7,C=C1C(=O)[C@@]23[C@H](O)C[C@@H]4[C@@](C)(COC(C)=O)CCC[C@@]4(C)[C@@H]2C[C@H](OC(C)=O)[C@@H]1[C@H]3O,Toxic
8,C=C1C(=O)[C@@]23[C@H](O)C[C@@H]4[C@@](C)(COC(C)=O)CCC[C@@]4(C)[C@@H]2C=C[C@@H]1[C@H]3O,Toxic
9,C=C1C(=O)[C@@]23[C@@H]4OC(C)(C)O[C@@H]2C[C@@H]2[C@@](C)(COC(=O)C(F)(F)F)CCC[C@@]2(C)[C@@H]3C[C@H](OC(=O)C(F)(F)F)[C@@H]14,Toxic
10,C=C1C(=O)[C@@]23[C@H](O)C[C@@H]4[C@@](C)(COC(C)=O)CCC[C@@]4(C)[C@@H]2C[C@H](O)[C@@H]1[C@H]3O [ALBOPILOSIN A],Toxic
11,C=C1C(=O)[C@@]23[C@H](O)C[C@@H]4[C@@](C)(CO)CCC[C@@]4(C)[C@@H]2C=C[C@@H]1[C@H]3O,Toxic
12,C=C1C(=O)[C@@]23[C@@H]4OC(C)(C)O[C@@H]2C[C@@H]2[C@@](C)(CO)CCC[C@@]2(C)[C@@H]3C[C@H](O)[C@@H]14,Toxic
13,C=C1C(=O)[C@@]23[C@H](O)C[C@H]4[C@@](C)(CCC[C@]4(C)C=O)[C@@H]2C[C@H](OC(C)=O)[C@@H]1[C@H]3O,Toxic
14,C=C1C(=O)[C@@]23[C@H](O)C[C@H]4[C@@](C)(CCC[C@]4(C)C(=O)O)[C@@H]2C[C@H](OC(C)=O)[C@@H]1[C@H]3O,Toxic
15,C=C1C(=O)[C@@]23[C@H](O)C[C@@H]4[C@@](C)(CO)CCC[C@@]4(C)[C@@H]2C[C@H](O)[C@@H]1[C@H]3O [RABDOKUNMIN C],Toxic
16,C=C1C(=O)[C@@]23[C@@H]4OC(C)(C)O[C@@H]2C[C@@H]2[C@@](C)(COC(C)=O)CCC[C@@]2(C)[C@@H]3C[C@H](O)[C@@H]14,Toxic

# Test system: HEK-293T
# Experiment: Cytotoxicity against human 293T cells assessed as cell viability by dual-luciferase reporter assay
# Type: cell-based
# Details: not given
row,SMILES,IC50 [nM]
1,C=C1C(=O)[C@@]23[C@H](O)C[C@@H]4[C@@](C)(COC(=O)CC)CCC[C@@]4(C)[C@@H]2C[C@H](OC(=O)CC)[C@@H]1[C@H]3O,> 5000
2,C=C1C(=O)[C@@]23[C@H](O)C[C@@H]4[C@@](C)(COC(=O)CCC)CCC[C@@]4(C)[C@@H]2C[C@H](OC(=O)CCC)[C@@H]1[C@H]3O,2300
3,C=C1C(=O)[C@@]23[C@@H]4OC(C)(C)O[C@@H]2C[C@@H]2[C@@](C)(CO)CCC[C@@]2(C)[C@@H]3C[C@H](OC(C)=O)[C@@H]14,2390
4,C=C1C(=O)[C@@]23[C@@H]4OC(C)(C)O[C@@H]2C[C@@H]2[C@@](C)(COC(C)=O)CCC[C@@]2(C)[C@@H]3C[C@H](OC(C)=O)[C@@H]14,1800
5,CC1=C(O)C(=O)C=C2C1=CC=C1[C@@]2(C)CC[C@@]2(C)[C@@H]3C[C@](C)(C(=O)O)CC[C@]3(C)CC[C@]12C [CELASTROL],670
6,C=C1C(=O)[C@@]23[C@H](O)C[C@@H]4[C@@](C)(COC(C)=O)CCC[C@@]4(C)[C@@H]2C[C@H](OC(C)=O)[C@@H]1[C@H]3O,2920
7,C=C1C(=O)[C@@]23[C@H](O)C[C@@H]4[C@@](C)(COC(C)=O)CCC[C@@]4(C)[C@@H]2C=C[C@@H]1[C@H]3O,> 5000
8,C=C1C(=O)[C@@]23[C@H](O)C[C@@H]4[C@@](C)(CO)CCC[C@@]4(C)[C@@H]2C[C@H](OC(=O)CCC)[C@@H]1[C@H]3O,1910
9,C=C1C(=O)[C@]23[C@H](O)[C@H]1CC[C@H]2[C@@]12CO[C@]3(O)[C@@H](O)[C@@H]1C(C)(C)CC[C@@H]2O [ORIDONIN],> 5000

# Test system: not listed separately
# Experiment: Inhibition of LPS-induced NF-kappaB activation in human 293T cells incubated for 30 mins followed by treated with LPS for 6 hrs by dual-luciferase reporter assay
# Type: cell-based
# Details: HEK-293T
row,SMILES,IC50 [nM]
1,C=C1C(=O)[C@@]23[C@H](O)C[C@@H]4[C@@](C)(COC(=O)CC)CCC[C@@]4(C)[C@@H]2C[C@H](OC(=O)CC)[C@@H]1[C@H]3O,> 5000
2,C=C1C(=O)[C@@]23[C@H](O)C[C@@H]4[C@@](C)(COC(=O)CCC)CCC[C@@]4(C)[C@@H]2C[C@H](OC(=O)CCC)[C@@H]1[C@H]3O,2970
3,C=C1C(=O)[C@@]23[C@@H]4OC(C)(C)O[C@@H]2C[C@@H]2[C@@](C)(CO)CCC[C@@]2(C)[C@@H]3C[C@H](OC(C)=O)[C@@H]14,1530
4,C=C1C(=O)[C@@]23[C@@H]4OC(C)(C)O[C@@H]2C[C@@H]2[C@@](C)(COC(C)=O)CCC[C@@]2(C)[C@@H]3C[C@H](OC(C)=O)[C@@H]14,2010
5,CC1=C(O)C(=O)C=C2C1=CC=C1[C@@]2(C)CC[C@@]2(C)[C@@H]3C[C@](C)(C(=O)O)CC[C@]3(C)CC[C@]12C [CELASTROL],170
6,C=C1C(=O)[C@@]23[C@H](O)C[C@@H]4[C@@](C)(COC(C)=O)CCC[C@@]4(C)[C@@H]2C[C@H](OC(C)=O)[C@@H]1[C@H]3O,2000
7,C=C1C(=O)[C@@]23[C@H](O)C[C@@H]4[C@@](C)(COC(C)=O)CCC[C@@]4(C)[C@@H]2C=C[C@@H]1[C@H]3O,1470
8,C=C1C(=O)[C@@]23[C@H](O)C[C@@H]4[C@@](C)(CO)CCC[C@@]4(C)[C@@H]2C[C@H](OC(=O)CCC)[C@@H]1[C@H]3O,1680
9,C=C1C(=O)[C@]23[C@H](O)[C@H]1CC[C@H]2[C@@]12CO[C@]3(O)[C@@H](O)[C@@H]1C(C)(C)CC[C@@H]2O [ORIDONIN],4440
